# Experimental data as given in paper PMC3961306, “Comparison of the Cancer Gene Targeting and Biochemical Selectivities of All Targeted Kinase Inhibitors Approved for Clinical Use” (PLoS ONE, 2014).
# Experiments:
# Experiment in all cases: Kinase profiling in a biochemical assay panel (mobility shift assays and ELISA), %-inhibition at 1 μM; selectivity entropy
# [1] = molecular target: panel of more than 300 wild-type and mutant kinases (313 kinase panel) (Homo sapiens, UniProt Q16654); details: kinase PDHK4; 1 μM
# [2] = molecular target: panel of more than 300 wild-type and mutant kinases (313 kinase panel) (Homo sapiens, UniProt Q9UBS0); details: kinase p70S6Kβ; 1 μM
# [3] = molecular target: panel of more than 300 wild-type and mutant kinases (313 kinase panel) (Homo sapiens, UniProt Q16512); details: kinase PKN1; 1 μM
# [4] = molecular target: panel of more than 300 wild-type and mutant kinases (313 kinase panel) (Homo sapiens, UniProt Q9UKE5); details: kinase TNIK; 1 μM
# [5] = molecular target: panel of more than 300 wild-type and mutant kinases (313 kinase panel) (Homo sapiens, UniProt Q9UK32); details: kinase RSK4; 1 μM
# [6] = molecular target: panel of more than 300 wild-type and mutant kinases (313 kinase panel) (Homo sapiens, UniProt Q7KZI7)
# [7] = molecular target: panel of more than 300 wild-type and mutant kinases (313 kinase panel) (Homo sapiens, UniProt P06241); details: kinase FYN; compound at 1 μM
# [8] = molecular target: panel of more than 300 wild-type and mutant kinases (313 kinase panel) (Homo sapiens, UniProt Q9Y5S2); details: kinase MRCKβ; 1 μM
# [9] = molecular target: panel of more than 300 wild-type and mutant kinases (313 kinase panel) (Homo sapiens, UniProt P35916)
# [10] = molecular target: T1, panel of more than 300 wild-type and mutant kinases (313 kinase panel) (Homo sapiens, UniProt Q9H093); details: kinase NuaK2; 1 μM
# T1 sequence (Q9H093 1-628): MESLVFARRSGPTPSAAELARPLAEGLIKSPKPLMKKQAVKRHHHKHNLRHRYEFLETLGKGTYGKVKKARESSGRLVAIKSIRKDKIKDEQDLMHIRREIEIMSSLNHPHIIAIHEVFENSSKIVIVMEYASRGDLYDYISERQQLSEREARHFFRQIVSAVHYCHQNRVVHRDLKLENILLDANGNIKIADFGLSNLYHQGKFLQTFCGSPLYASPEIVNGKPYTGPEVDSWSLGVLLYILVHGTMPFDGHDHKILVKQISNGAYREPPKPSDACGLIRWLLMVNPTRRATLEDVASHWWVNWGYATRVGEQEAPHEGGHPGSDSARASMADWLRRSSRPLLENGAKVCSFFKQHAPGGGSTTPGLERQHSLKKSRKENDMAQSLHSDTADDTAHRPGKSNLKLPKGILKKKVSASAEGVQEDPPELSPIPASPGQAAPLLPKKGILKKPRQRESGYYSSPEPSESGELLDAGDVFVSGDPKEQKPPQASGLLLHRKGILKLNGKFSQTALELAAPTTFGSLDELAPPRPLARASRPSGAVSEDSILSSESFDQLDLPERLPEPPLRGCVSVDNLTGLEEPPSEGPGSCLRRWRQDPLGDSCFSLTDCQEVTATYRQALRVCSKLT
# [11] = molecular target: panel of more than 300 wild-type and mutant kinases (313 kinase panel) (Homo sapiens, UniProt Q9NYY3); details: kinase PLK2; 1 μM
# [12] = molecular target: panel of more than 300 wild-type and mutant kinases (313 kinase panel) (Homo sapiens, UniProt P49759); details: kinase CLK1; 1 μM compound
# [13] = molecular target: panel of more than 300 wild-type and mutant kinases (313 kinase panel) (Homo sapiens, UniProt P48730); details: kinase CK1δ; 1 μM compound
# [14] = molecular target: panel of more than 300 wild-type and mutant kinases (313 kinase panel) (Homo sapiens, UniProt P22607, K650E); details: kinase FGFR3(K650E); compound at 1 μM
# [15] = molecular target: panel of more than 300 wild-type and mutant kinases (313 kinase panel) (Homo sapiens, UniProt P22607, K650M); details: kinase FGFR3(K650M); compound at 1 μM
# Sequence of panel of more than 300 wild-type and mutant kinases (313 kinase panel) (Homo sapiens, UniProt P22607, K650M) (P22607 23-806 K650M): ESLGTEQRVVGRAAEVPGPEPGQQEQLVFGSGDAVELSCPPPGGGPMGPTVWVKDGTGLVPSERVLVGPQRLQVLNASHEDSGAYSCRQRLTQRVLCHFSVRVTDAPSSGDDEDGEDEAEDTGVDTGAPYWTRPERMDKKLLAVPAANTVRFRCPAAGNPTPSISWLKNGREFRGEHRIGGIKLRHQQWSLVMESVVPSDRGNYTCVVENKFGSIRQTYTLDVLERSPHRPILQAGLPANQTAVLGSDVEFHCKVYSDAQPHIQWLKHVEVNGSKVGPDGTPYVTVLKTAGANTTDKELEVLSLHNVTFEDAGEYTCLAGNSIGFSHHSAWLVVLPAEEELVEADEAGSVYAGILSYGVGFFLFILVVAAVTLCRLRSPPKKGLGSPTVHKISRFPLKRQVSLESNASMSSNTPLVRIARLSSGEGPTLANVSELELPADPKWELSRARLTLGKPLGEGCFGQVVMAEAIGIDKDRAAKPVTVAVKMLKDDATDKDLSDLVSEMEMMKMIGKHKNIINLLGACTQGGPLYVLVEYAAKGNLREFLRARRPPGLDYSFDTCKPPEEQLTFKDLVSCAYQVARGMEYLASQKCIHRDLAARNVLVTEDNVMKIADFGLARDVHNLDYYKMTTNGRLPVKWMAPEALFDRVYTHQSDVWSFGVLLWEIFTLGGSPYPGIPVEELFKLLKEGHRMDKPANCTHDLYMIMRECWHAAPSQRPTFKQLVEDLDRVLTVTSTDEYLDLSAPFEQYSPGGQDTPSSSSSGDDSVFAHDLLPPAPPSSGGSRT
# Sequence of panel of more than 300 wild-type and mutant kinases (313 kinase panel) (Homo sapiens, UniProt Q9UKE5) (Q9UKE5 whole entry, change not shown): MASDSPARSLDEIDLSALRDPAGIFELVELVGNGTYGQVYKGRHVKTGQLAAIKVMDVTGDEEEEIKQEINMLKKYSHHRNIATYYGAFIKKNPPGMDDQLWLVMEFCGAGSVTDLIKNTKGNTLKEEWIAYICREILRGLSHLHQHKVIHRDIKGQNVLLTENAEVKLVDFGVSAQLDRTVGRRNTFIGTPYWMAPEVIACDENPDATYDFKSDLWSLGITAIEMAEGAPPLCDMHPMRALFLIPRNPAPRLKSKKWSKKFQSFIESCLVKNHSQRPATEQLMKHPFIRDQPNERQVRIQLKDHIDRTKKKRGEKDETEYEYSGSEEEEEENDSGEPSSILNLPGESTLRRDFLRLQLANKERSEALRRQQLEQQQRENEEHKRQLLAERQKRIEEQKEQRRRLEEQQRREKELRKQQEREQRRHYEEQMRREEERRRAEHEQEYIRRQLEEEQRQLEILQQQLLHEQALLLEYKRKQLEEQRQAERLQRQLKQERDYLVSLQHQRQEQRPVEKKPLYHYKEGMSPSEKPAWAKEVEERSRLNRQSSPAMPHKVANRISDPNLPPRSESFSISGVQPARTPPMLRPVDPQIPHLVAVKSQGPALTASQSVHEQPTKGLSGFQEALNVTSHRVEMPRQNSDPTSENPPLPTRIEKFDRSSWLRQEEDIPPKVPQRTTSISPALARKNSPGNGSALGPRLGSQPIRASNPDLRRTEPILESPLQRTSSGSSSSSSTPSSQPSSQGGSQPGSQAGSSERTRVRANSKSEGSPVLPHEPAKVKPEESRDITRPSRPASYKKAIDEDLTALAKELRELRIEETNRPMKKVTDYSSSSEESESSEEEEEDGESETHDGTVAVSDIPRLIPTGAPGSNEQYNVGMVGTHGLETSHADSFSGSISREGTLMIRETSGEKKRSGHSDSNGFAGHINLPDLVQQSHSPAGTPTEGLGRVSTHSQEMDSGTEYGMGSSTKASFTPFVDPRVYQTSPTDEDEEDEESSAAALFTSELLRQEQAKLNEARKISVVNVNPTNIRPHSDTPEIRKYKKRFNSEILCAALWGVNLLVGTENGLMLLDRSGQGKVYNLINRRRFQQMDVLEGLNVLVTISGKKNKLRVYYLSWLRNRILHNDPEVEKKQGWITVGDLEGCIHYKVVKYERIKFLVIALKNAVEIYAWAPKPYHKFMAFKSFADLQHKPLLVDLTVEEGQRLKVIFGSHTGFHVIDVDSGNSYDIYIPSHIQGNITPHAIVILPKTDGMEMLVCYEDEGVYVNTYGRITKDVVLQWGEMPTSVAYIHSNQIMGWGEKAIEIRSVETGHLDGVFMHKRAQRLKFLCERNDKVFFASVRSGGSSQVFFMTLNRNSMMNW
# Sequence of panel of more than 300 wild-type and mutant kinases (313 kinase panel) (Homo sapiens, UniProt P06241) (P06241 whole entry, change not shown): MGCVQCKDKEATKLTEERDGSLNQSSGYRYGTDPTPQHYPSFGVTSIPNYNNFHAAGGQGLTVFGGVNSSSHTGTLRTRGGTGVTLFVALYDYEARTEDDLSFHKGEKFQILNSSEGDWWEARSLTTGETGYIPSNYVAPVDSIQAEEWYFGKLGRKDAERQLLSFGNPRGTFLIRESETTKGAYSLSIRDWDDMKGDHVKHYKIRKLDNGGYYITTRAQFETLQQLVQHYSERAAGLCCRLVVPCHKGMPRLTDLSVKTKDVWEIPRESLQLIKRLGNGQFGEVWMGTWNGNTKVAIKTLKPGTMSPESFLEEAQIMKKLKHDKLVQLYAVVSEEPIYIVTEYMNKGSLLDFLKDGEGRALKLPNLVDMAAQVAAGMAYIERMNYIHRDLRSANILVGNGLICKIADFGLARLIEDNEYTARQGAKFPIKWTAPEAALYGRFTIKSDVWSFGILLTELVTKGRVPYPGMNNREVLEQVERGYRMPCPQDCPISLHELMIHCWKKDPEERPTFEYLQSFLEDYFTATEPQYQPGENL
# Sequence of panel of more than 300 wild-type and mutant kinases (313 kinase panel) (Homo sapiens, UniProt Q9UK32) (Q9UK32 whole entry, change not shown): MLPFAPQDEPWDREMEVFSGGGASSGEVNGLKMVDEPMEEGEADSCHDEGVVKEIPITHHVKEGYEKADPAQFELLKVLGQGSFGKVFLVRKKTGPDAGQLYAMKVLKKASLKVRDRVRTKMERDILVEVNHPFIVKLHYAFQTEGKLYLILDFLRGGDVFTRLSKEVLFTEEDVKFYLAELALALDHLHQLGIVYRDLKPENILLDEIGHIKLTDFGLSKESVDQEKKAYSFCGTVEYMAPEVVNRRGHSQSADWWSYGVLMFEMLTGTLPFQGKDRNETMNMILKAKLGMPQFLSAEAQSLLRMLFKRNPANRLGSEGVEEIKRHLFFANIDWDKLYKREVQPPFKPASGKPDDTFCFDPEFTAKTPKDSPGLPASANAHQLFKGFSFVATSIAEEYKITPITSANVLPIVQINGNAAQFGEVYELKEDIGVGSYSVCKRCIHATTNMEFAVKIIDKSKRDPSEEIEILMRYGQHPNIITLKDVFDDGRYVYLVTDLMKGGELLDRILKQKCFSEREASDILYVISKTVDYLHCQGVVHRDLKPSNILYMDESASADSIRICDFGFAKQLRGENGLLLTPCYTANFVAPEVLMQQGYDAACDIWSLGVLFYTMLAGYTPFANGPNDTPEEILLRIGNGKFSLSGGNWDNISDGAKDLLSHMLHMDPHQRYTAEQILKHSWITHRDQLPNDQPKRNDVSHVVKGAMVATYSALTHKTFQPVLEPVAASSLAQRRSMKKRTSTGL
# Sequence of panel of more than 300 wild-type and mutant kinases (313 kinase panel) (Homo sapiens, UniProt P49759) (P49759 whole entry, stated change not applied): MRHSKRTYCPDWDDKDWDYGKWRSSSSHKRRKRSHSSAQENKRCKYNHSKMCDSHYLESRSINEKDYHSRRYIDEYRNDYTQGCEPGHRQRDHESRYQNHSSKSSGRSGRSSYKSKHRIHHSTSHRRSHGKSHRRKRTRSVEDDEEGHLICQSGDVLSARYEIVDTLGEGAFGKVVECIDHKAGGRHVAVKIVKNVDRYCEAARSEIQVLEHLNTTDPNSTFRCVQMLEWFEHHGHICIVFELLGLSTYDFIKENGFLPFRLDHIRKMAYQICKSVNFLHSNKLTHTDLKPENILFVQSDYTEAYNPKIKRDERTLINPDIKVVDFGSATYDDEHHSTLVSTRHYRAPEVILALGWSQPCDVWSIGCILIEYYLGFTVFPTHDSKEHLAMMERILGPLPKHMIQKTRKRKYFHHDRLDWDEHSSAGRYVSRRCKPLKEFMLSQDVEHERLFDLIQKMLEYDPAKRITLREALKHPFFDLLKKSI
# Sequence of panel of more than 300 wild-type and mutant kinases (313 kinase panel) (Homo sapiens, UniProt P22607, K650E) (P22607 23-806 K650E): as the sequence (P22607 23-806 K650M) above, with M628E counted along it
Structure (SMILES),%-inhibition of PDHK4 [1] [%],%-inhibition of p70S6Kβ [2] [%],%-inhibition of PKN1 [3] [%],%-inhibition of TNIK [4] [%],%-inhibition of RSK4 [5] [%],%-inhibition of MARK2 ([6]; 1 µM) [%],%-inhibition of FYN [7] [%],%-inhibition of MRCKβ [8] [%],"%-inhibition of FLT4 ([9]; kinase FLT4, compound at 1 μM) [%]",%-inhibition of NuaK2 [10] [%],%-inhibition of PLK2 [11] [%],"%-inhibition, CLK1 [12] [%]","%-inhibition, CK1δ [13] [%]","%-inhibition of MARK2 ([6]; kinase MARK2, compound at 1 μM) [%]",%-inhibition of FGFR3(K650E) [14] [%],%-inhibition of FGFR3(K650M) [15] [%],%-inhibition of FLT4 ([9]; 1 µM) [%]
CN(C)C/C=C/C(=O)Nc1cc2c(Nc3ccc(F)c(Cl)c3)ncnc2cc1O[C@H]1CCOC1 [afatinib],-3.28,3.42,–,–,–,–,–,–,–,–,–,–,–,–,–,–,–
COc1cc(Nc2c(C#N)cnc3cc(OCCCN4CCN(C)CC4)c(OC)cc23)c(Cl)cc1Cl [bosutinib],–,–,32,102,43,58,95,66,92,87,21,–,–,–,–,–,–
Cc1nc(Nc2ncc(C(=O)Nc3c(C)cccc3Cl)s2)cc(N2CCN(CCO)CC2)n1 [dasatinib],–,–,–,–,–,–,100,–,31,3,–,–,–,–,–,–,–
O=S(=O)(c1cccc2cnccc12)N1CCCNCC1 [fasudil],4.74,37,55,4,16,–,8.5,–,5.61,20,7,32,-3.4,3.21,-0.641,-0.618,–
Cc1ccc(Nc2nccc(N(C)c3ccc4c(C)n(C)nc4c3)n2)cc1S(N)(=O)=O [pazopanib],-1,1.69,17,83,10,–,–,1.15,–,2.81,1.23,7.57,1.13,8,–,–,–
Cc1ccc(C(=O)Nc2ccc(CN3CCN(C)CC3)c(C(F)(F)F)c2)cc1C#Cc1cnc2cccnn12 [ponatinib],-1.4,78,1.61,96,13,–,101,1.18,101,-13,-1.17,–,–,–,101,100,–
N#CC[C@H](C1CCCC1)n1cc(-c2ncnc3[nH]ccc23)cn1 [ruxolitinib],-6,11,50,0.811,3.16,–,11,20,–,41,10,33,12,–,16,16,36
CCN(CC)CCNC(=O)c1c(C)[nH]c(/C=C2\C(=O)Nc3ccc(F)cc32)c1C [sunitinib],–,–,–,94,–,–,88,–,–,–,–,–,32,–,96,97,–
CO[C@H]1C[C@@H]2CC[C@@H](C)[C@@](O)(O2)C(=O)C(=O)N2CCCC[C@H]2C(=O)O[C@H]([C@H](C)C[C@@H]2CC[C@@H](OC(=O)C(C)(CO)CO)[C@H](OC)C2)CC(=O)[C@H](C)/C=C(\C)[C@@H](O)[C@@H](OC)C(=O)[C@H](C)C[C@H](C)/C=C/C=C/C=C/1C [temsirolimus],-1.83,-7,0.71,-2.54,-6,–,-1.39,-4,-0.926,-5.44,0.568,–,-5.47,-6,-2.55,0.626,–
COc1cc2c(Nc3ccc(Br)cc3F)ncnc2cc1OCC1CCN(C)CC1 [vandetanib],-1.83,2.58,0.946,66,5.43,–,88,-16,104,-14,-3,14,6,-9,–,–,–
